According to patent US6358885B1, “Substituted phenylheterocyclic herbicides” (Mississippi State University, priority 1992, dated 2002):

Assays:
[1] = test system: rape; experiment: Test B preemergence/postemergence greenhouse plant response rating 0 to 10; assay type: in vivo, Brassica napus; settings: 0 to 10 scale
Outline: (§1)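 Postemergence treatment of plants two to eighteen cm tall ran alongside preemergence treatment of planted seed, each using compound in a non-phytotoxic solvent.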

[2] = test system: giant foxtail; experiment: Test C preemergence/postemergence greenhouse plant response rating 0 to 100; assay type: in vivo, Setaria faberii; settings: POSTEMERGENCE
Outline: (§2)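 Compounds in non-phytotoxic solvent applied preemergence to sandy loam one day after planting, postemergence at the 1–4 leaf stage, or to ~2.5 cm floodwater over silt loam.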

[3] = test system: rice; experiment: Test C flood test plant response rating 0 to 100; assay type: in vivo, Oryza sativa
Outline: as §2

[4] = test system: giant foxtail; experiment: Test B preemergence/postemergence greenhouse plant response rating 0 to 10; assay type: in vivo, Setaria faberii; settings: 0 to 10 scale
Outline: as §1

[5] = test system: downy brome; experiment: Test C preemergence/postemergence greenhouse plant response rating 0 to 100; assay type: in vivo, Bromus tectorum; settings: POSTEMERGENCE
Outline: as §2

[6] = test system: wheat; experiment: Test B preemergence/postemergence greenhouse plant response rating 0 to 10; assay type: in vivo, Triticum aestivum; settings: 0 to 10 scale
Outline: as §1

[7] = test system: corn; experiment: as above; assay type: in vivo, Zea mays; settings: 0 to 10 scale
Outline: as §1

[8] = test system: barley; experiment: as above; assay type: in vivo, Hordeum vulgare; settings: 0 to 10 scale
Outline: as §1

[9] = test system: sorghum; experiment: as above; assay type: in vivo, Sorghum bicolor; settings: 0 to 10 scale
Outline: as §1

[10] = test system: barnyardgrass; experiment: as above; assay type: in vivo, Echinochloa crus-galli; settings: 0 to 10 scale
Outline: as §1

[11] = test system: chickweed; experiment: Test C preemergence/postemergence greenhouse plant response rating 0 to 100; assay type: in vivo, Stellaria media; settings: POSTEMERGENCE
Outline: as §2

[12] = test system: crabgrass; experiment: Test B preemergence/postemergence greenhouse plant response rating 0 to 10; assay type: in vivo, Digitaria spp.; settings: 0 to 10 scale
Outline: as §1

[13] = test system: crabgrass; experiment: Test C preemergence/postemergence greenhouse plant response rating 0 to 100; assay type: in vivo, Digitaria sanguinalis; settings: POSTEMERGENCE
Outline: as §2

[14] = test system: wild oat; experiment: as above; assay type: in vivo, Avena fatua; settings: POSTEMERGENCE
Outline: as §2

[15] = test system: duck salad; experiment: Test C flood test plant response rating 0 to 100; assay type: in vivo, Heteranthera limosa
Outline: as §2

[16] = test system: wild buckwheat; experiment: Test C preemergence/postemergence greenhouse plant response rating 0 to 100; assay type: in vivo, Polygonum convolvulus; settings: POSTEMERGENCE
Outline: as §2

[17] = test system: bedstraw; experiment: as above; assay type: in vivo, Galium aparine; settings: POSTEMERGENCE
Outline: as §2

[18] = test system: chickweed; experiment: Test B preemergence/postemergence greenhouse plant response rating 0 to 10; assay type: in vivo, Stellaria media; settings: POSTEMERGENCE, 0 to 10 scale
Outline: as §1

[19] = POSTEMERGENCE section, flood test, Rate 1 g/ha
[20] = POSTEMERGENCE section, flood test, Rate 4 g/ha
[21] = Rate 16 g/ha, under POSTEMERGENCE head (flood test species)
[22] = flood test species listed under POSTEMERGENCE, 62 g/ha, 0 to 100 scale

C=CCN1C(=O)COc2cc(F)c(-c3nn4c(c3Cl)CCCC4)cc21 [Compound 33]
Plant response rating, Rape ([1]; POSTEMERGENCE, Rate 10 g/ha): 10
Plant response rating, Rape ([1]; POSTEMERGENCE, Rate 50 g/ha): 10
Plant response rating, Rape ([1]; PREEMERGENCE, Rate 50 g/ha): 5
Plant response rating, Giant foxtail ([2]; 62 g/ha, 0 to 100 scale): 70
Plant response rating (0 to 100), Giant foxtail ([2]; Rate 1 g/ha): 0
Plant response rating (0 to 100), Giant foxtail ([2]; Rate 4 g/ha): 0
Plant response rating (0 to 100), Giant foxtail ([2]; Rate 16 g/ha): 20
Plant response rating (0 to 100), Rice Japonica [3, 19]: 20
Plant response rating (0 to 100), Rice Japonica [3, 20]: 50
Plant response rating (0 to 100), Rice Japonica [3, 21]: 60
Plant response rating Rice Japonica [3, 22]: 85
Plant response rating, Giant foxtail ([4]; POSTEMERGENCE, Rate 10 g/ha): 4
Plant response rating, Giant foxtail ([4]; POSTEMERGENCE, Rate 50 g/ha): 4
Plant response rating, Giant foxtail ([4]; PREEMERGENCE, Rate 10 g/ha): 2
Plant response rating, Giant foxtail ([4]; PREEMERGENCE, Rate 50 g/ha): 7
Plant response rating Downy Brome ([5]; 62 g/ha, 0 to 100 scale): 60
Plant response rating (0 to 100), Downy Brome ([5]; Rate 1 g/ha): 30
Plant response rating (0 to 100), Downy Brome ([5]; Rate 4 g/ha): 40
Plant response rating (0 to 100), Downy Brome ([5]; Rate 16 g/ha): 60
Plant response rating, Wheat ([6]; POSTEMERGENCE, Rate 10 g/ha): 3
Plant response rating, Wheat ([6]; POSTEMERGENCE, Rate 50 g/ha): 5
Plant response rating, Wheat ([6]; PREEMERGENCE, Rate 50 g/ha): 2
Plant response rating, Corn ([7]; POSTEMERGENCE, Rate 10 g/ha): 3
Plant response rating, Corn ([7]; POSTEMERGENCE, Rate 50 g/ha): 4
Plant response rating, Corn ([7]; PREEMERGENCE, Rate 50 g/ha): 0
Plant response rating, Barley ([8]; POSTEMERGENCE, Rate 10 g/ha): 4
Plant response rating, Barley ([8]; POSTEMERGENCE, Rate 50 g/ha): 4
Plant response rating, Barley ([8]; PREEMERGENCE, Rate 10 g/ha): 0
Plant response rating, Barley ([8]; PREEMERGENCE, Rate 50 g/ha): 1
Plant response rating, Sorghum ([9]; POSTEMERGENCE, Rate 10 g/ha): 6
Plant response rating, Sorghum ([9]; POSTEMERGENCE, Rate 50 g/ha): 6
Plant response rating, Sorghum ([9]; PREEMERGENCE, Rate 50 g/ha): 0
Plant response rating, Barnyardgrass ([10]; POSTEMERGENCE, Rate 10 g/ha): 4
Plant response rating, Barnyardgrass ([10]; POSTEMERGENCE, Rate 50 g/ha): 7
Plant response rating, Barnyardgrass ([10]; PREEMERGENCE, Rate 10 g/ha): 2
Plant response rating, Barnyardgrass ([10]; PREEMERGENCE, Rate 50 g/ha): 3
Plant response rating, Chickweed ([11]; 62 g/ha, 0 to 100 scale): 100
Plant response rating (0 to 100), Chickweed ([11]; Rate 1 g/ha): 40
Plant response rating (0 to 100), Chickweed ([11]; Rate 4 g/ha): 60
Plant response rating (0 to 100), Chickweed ([11]; Rate 16 g/ha): 85
Plant response rating, Crabgrass ([12]; POSTEMERGENCE, Rate 10 g/ha): 3
Plant response rating, Crabgrass ([12]; POSTEMERGENCE, Rate 50 g/ha): 5
Plant response rating, Crabgrass ([12]; PREEMERGENCE, Rate 10 g/ha): 2
Plant response rating, Crabgrass ([12]; PREEMERGENCE, Rate 50 g/ha): 6
Plant response rating, Crabgrass ([13]; 62 g/ha, 0 to 100 scale): 20
Plant response rating (0 to 100), Crabgrass ([13]; Rate 1 g/ha): 0
Plant response rating (0 to 100), Crabgrass ([13]; Rate 4 g/ha): 0
Plant response rating (0 to 100), Crabgrass ([13]; Rate 16 g/ha): 0
Plant response rating, Wild oat ([14]; 62 g/ha, 0 to 100 scale): 60
Plant response rating (0 to 100), Wild oat ([14]; Rate 1 g/ha): 30
Plant response rating (0 to 100), Wild oat ([14]; Rate 4 g/ha): 40
Plant response rating (0 to 100), Wild oat ([14]; Rate 16 g/ha): 50
Plant response rating (0 to 100), Duck salad [15, 19]: 0
Plant response rating (0 to 100), Duck salad [15, 20]: 0
Plant response rating (0 to 100), Duck salad [15, 21]: 65
Plant response rating Duck salad [15, 22]: 80
Plant response rating, Wild buckwheat ([16]; 62 g/ha, 0 to 100 scale): 100
Plant response rating (0 to 100), Wild buckwheat ([16]; Rate 1 g/ha): 80
Plant response rating (0 to 100), Wild buckwheat ([16]; Rate 4 g/ha): 90
Plant response rating, Bedstraw ([17]; 62 g/ha, 0 to 100 scale): 100
Plant response rating (0 to 100), Bedstraw ([17]; Rate 1 g/ha): 80
Plant response rating (0 to 100), Bedstraw ([17]; Rate 4 g/ha): 90
Plant response rating (0 to 100), Bedstraw ([17]; Rate 16 g/ha): 100
Plant response rating, Chickweed ([18]; Rate 10 g/ha): 10
Plant response rating, Chickweed ([18]; Rate 50 g/ha): 10
